Assay results taken from patent US20170231890A1, “Methods And Compositions For Stimulating Collagen Synthesis In Skin Cells” (ELC Management LLC, priority 2016, published 2017).

Test system: normal human dermal fibroblasts (NHDF) from a donor
Assay: collagen induction assay (Pro-collagen Type I EIA) in aged fibroblasts
Assay type: cell-based
Details: for % Increase in Collagen Induction: 5 days, vs DMEM control
Method: Tripeptide-32 was tested at various concentrations for its ability to stimulate collagen production in normal human dermal fibroblasts (“NHDF”) from a donor in a collagen induction assay. Tripeptide-32 was tested at 1× (0.2%) 0.5× (0.1%) and 0.2× (0.04%) concentration diluted in DMEM (“Dulbecco's Modified Eagle Medium”) supplemented with 10% Hyclone® bovine calf serum and 1% Cellgro® penicillin-streptomycin solution (“DMEM”). All percentages are by weight of the total composition.
Cell Growth and Maintenance. Aged NHDF were obtained from ZenBio. Fibroblasts were cultured in DMEM 1× (Life Tech) supplemented with 10% bovine calf serum (“BCS”) (Hyclone) and 1% PenStrep (“PS”) solution (Cellgro). Cells were regularly maintained; subcultured as needed.
Plating Cells. Normal human dermal fibroblasts (NHDF, aged) were plated on a 96-well plate in supplemented DMEM (as indicated above). All rows, except for Row A, were seeded with cells (Row A was left blank to allow for background subtraction). Plate was allowed to incubate at standard conditions (37° C., 5% CO2, 95% humidity) overnight.
Preparation & Treatment of Cells. The following treatments were created in full media (1% P/S and 10% BCS supplemented) DMEM: (1) Laminaria digitata extract (0.5%); Acetyl hexapeptide-8 solution (a mixture of 0.05% Acetyl hexapeptide-8, 99.35% water and the remainder preservatives) (10%); and whey protein (0.1%, solid) with the remainder DMEM (the “Mixture”); (2) Mixture+Tripeptide-32: Laminaria digitata extract (0.5%), Acetyl hexpeptide-8 solution (10%), whey protein (0.1%) and Tripeptide-32 (0.2%) in DMEM at 1× (0.2%), 0.5× (0.1%), and 0.2× (0.04%) concentration; (3) Tripeptide-32 alone at 1× (0.2%), 0.5× (0.1%) and 0.2× (0.04%) concentration. Each treatment (200 ul/well) was added to the corresponding well of the 96-well plate. Treated plate was allowed to incubate at standard conditions (37° C., 5% CO2, 95% humidity) for 5 days.
Assessment of Collagen Production. Collagen production was assessed using the Pro-collagen Type I collagen EIA Kit (Takara) as per manufacturer's protocol, exactly as described. Plate was read using the Gemini M2E plate reader and results were compared.
The combination of Tripeptide-32 and a mixture of Acetyl hexapeptide-8, Laminaria digitata extract and whey protein were tested for collagen stimulation in NHDF from a donor. Tripeptide-32 at a concentration of 0.2% was combined with a mixture of Acetyl hexapeptide-8 solution (0.05% Acetyl hexapeptide-8, 99.35% water, remainder preservatives) (10%); 0.5% Laminaria digitata extract solution, and 0.1% whey protein in Supplemented DMEM.
The tests were performed according to the method in Example 1.

## Ser-Thr-Pro-NH2 [Tripeptide-32]
0.2× (0.04%)
  collagen synthesis (result in words): decreased collagen synthesis
0.2× concentration (Tripeptide-32 0.04%)
  % Increase in Collagen Induction: −15.39%
0.5× (0.1%) and 1× (0.2%) concentrations
  collagen synthesis (result in words): nearly insignificant increase in collagen synthesis
0.5× concentration (Tripeptide-32 0.1%)
  % Increase in Collagen Induction: +1.17%
1.0× concentration (Tripeptide-32 0.2%)
  % Increase in Collagen Induction: +3.27%
